Our source for the EC50 and IC50 values is patent US10107798B2, “Methods of chemotype evolution” (SUNESIS PHARMACEUTICALS, INC., priority 2008, dated 2018).

Molecules are shown by their SMILES. Values joined by “and” are separate entries in the source; they are usually repeats but may differ in a detail not shown here. Identical values can stand only once. Some results are limits rather than exact numbers.

T3 sequence (Q9UM73 1058-1620 limits assumed): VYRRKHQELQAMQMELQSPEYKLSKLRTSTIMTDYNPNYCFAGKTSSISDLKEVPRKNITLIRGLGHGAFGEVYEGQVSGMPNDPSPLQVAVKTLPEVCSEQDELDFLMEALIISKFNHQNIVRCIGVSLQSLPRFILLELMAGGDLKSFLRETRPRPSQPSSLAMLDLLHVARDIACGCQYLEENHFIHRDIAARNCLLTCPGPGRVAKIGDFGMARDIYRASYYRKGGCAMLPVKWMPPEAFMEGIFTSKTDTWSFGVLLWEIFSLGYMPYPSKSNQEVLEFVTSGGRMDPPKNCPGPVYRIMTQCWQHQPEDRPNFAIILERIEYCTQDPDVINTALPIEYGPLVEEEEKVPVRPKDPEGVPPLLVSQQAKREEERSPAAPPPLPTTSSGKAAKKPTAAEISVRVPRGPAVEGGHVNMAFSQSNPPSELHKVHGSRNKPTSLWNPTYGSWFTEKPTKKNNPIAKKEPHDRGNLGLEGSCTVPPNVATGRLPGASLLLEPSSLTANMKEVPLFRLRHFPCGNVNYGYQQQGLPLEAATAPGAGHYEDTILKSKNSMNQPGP

The first assay deals with T1, Aurora A (Homo sapiens, UniProt O14965).
T1 sequence (O14965 1-403): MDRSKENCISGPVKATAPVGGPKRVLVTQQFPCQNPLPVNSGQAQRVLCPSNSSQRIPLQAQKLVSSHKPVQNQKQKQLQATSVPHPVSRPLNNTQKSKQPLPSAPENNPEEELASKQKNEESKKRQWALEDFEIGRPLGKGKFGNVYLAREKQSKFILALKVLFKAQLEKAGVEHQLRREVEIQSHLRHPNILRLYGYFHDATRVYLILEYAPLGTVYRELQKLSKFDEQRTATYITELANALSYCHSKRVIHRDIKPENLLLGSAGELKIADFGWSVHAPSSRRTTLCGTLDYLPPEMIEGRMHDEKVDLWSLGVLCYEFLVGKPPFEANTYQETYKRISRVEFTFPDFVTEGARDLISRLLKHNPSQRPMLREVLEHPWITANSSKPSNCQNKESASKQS
The assay is described as follows: Aurora A activity in cell based assays. Conditions: inhibition of Aurora A activity in cell based assays.
Broadly, the EC50 is the concentration needed to bring the measured effect to its halfway point. High values mean a less potent agent, low ones a more potent agent. The compound `COc1ccc(C(=O)Nc2ccccc2)cc1NC(=O)CCSc1ncnc(N)c1Br` [Compound 15] showed a 50% effective concentration (EC50) of 1 µM.
As for `Nc1ncnc(NCCc2cnc(NC(=O)Nc3cccc(C(F)(F)F)c3)s2)c1Br` [Compound 18], a half-maximal effect (EC50) was put at 0.05 µM.

The target in a further assay is T2, Humanized mouse Aurora A (amino acids 107-403) (Mus musculus, UniProt P97477).
T2 sequence (P97477 1-395 N164G/K218R/M280L): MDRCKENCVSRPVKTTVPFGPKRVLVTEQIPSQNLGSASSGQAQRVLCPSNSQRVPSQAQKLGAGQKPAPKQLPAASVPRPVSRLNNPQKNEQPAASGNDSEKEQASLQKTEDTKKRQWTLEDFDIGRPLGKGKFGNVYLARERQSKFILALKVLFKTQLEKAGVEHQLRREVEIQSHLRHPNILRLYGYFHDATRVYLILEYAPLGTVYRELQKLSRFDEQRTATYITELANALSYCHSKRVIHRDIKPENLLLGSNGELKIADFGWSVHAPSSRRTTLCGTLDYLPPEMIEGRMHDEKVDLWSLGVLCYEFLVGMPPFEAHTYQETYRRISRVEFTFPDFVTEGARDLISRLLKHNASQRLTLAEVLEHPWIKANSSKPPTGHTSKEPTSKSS
The assay is described as follows: Aurora A kinase assay (IMAP fluorescence polarization, FAM-PKAtide, 10 μM ATP). The following applies: Table 1; disulfide chemistry: bait, fragments, unpurified reaction mixtures and purified ligand; relative to concentration of fragment molecule; read-out: IC50. The assay is classed as biochemical. Here is the method:
Aurora A Kinase Assay: Humanized mouse Aurora A (amino acids 107-403) was expressed in E. coli as described herein. […] The kinase reaction was initiated by adding Aurora A at a final concentration of 0.3 nM and incubated at 21° C. for 30 min. As a positive control for enzyme activity, the reaction mixture was added to DMSO and as a negative control for enzyme activity, the reaction mixture was added to Compound 1 at a final concentration of 5 μM. Both control reactions were conducted in triplicate. To detect phosphorylated PKAtide, the kinase reaction was combined with Progressive Binding Solution (1:400 Progressive Binding Reagent, 1× Buffer A, Molecular Devices) in a 1:3 ratio. The mixture was incubated for 30 min at 25° C. and the plate was scanned on an Analyst AD with excitation at 485 nm and emission at 530 nm. The fluorescence polarization value “P” is defined by equation (1) below, where “Fpar” is the fluorescence intensity parallel to the excitation plane and “Fperp” is the fluorescence intensity perpendicular to the excitation plane. The value “mP” was generated by multiplying the P value for each reaction well by a factor of 1000. The percent relative enzymatic activity (“Y” values) was calculated by normalizing the mP value for each well to the average positive control. Relative enzymatic activity values were plotted as a function of the logarithm of compound concentration (“x”) and […] values were generated in GraphPad Prism software version 4.01 using Equation (2), where “x” is the logarithm of compound concentration and “Top”, “Bottom” and “HillSlope” are curve parameters calculated by the software. IC50 values were calculated as the concentration of compound at which enzymatic activity is 50%.
Fragment Library Pilot Screen. Fragment molecule plates were screened in 96-well plates at 5 μM in single-point format in the Aurora A Kinase assay as described above. All reaction mixtures resulting in greater than or equal to 50% inhibition of enzymatic activity were then tested in an IC50 assay. Original screening samples were used for follow-up IC50 experiments. LC/MS analysis was conducted on fragment assembly screening plates to confirm presence of desired test ligand in the reaction mixture. Confirmed hits were then resynthesized as purified thioether compounds and tested in an IC50 assay.
As to `O=C(NCCSSCCNc1ncnc2ccsc12)Nc1cccc(C(F)(F)F)c1` [Compound 3], the IC50 was determined as 1.6 µM.
As to `SCCNc1ncnc2ccsc12` [Compound 4], the IC50 came out at 24 µM.
Take `NCCSSCCNC(=O)Nc1cccc(C(F)(F)F)c1` [Compound 5]: the IC50 was 30 µM.
Same read-out and setting: to `NCCSSCCN` [Cystamine, reference compound] belongs 55 µM.

Staying with this assay, now noted: Table 2; thioether chemistry: bait, test fragment, unpurified reaction mixtures and purified ligand; relative to concentration of fragment molecule; read-out: IC50.
Turning to `Clc1ncnc2ccsc12` [Compound 7], the IC50 amounted to 28 µM.
As to `NCCSSCCc1cnc(NC(=O)Nc2cccc(C(F)(F)F)c2)s1` [Compound 8], the IC50 is 10 µM and 12.2 µM.
With `NCCSSCCN` [Cystamine, reference compound], the IC50 is greater than 500 µM.

The assay is the same for the next values; noted with them: Table 4; purified resynthesized molecule; read-out: Resynthesized Hit/Analog IC50.
Take `COc1ccc(C(=O)Nc2ccccc2)cc1NC(=O)CCSc1ncnc(N)c1Br` [Compound 15]: the IC50 was determined as 0.12 µM.
On to `COc1ccc(C(=O)Nc2ccccc2)cc1NC(=O)CCSCc1cnc2[nH]ccc2c1` [Compound 16], for which the IC50 was found to be 0.15 µM.
Take `O=C(NCCSc1ncnc2[nH]ccc12)Nc1ccc(C(=O)O)c(O)c1` [Compound 17]: the IC50 amounted to 0.4 µM.
In the case of `Nc1ncnc(NCCc2cnc(NC(=O)Nc3cccc(C(F)(F)F)c3)s2)c1Br` [Compound 18], the IC50 is 0.005 µM.

The same assay, now with this note: Table 5; bait, fragment and disulfide-assembled molecules; relative to concentration of fragment molecule; read-out: IC50.
For `CCCCNC(=O)c1cccc(NC(=O)CSSCCN)c1` [Compound 20], the IC50 was greater than 50 µM.
In the case of `CCCCNC(=O)c1cccc(NC(=O)CCCCCNc2ncnc3ccsc23)c1` [Compound 21], the IC50 was 4.1 µM.
Consider `NCCSSCCNC(=O)c1sc(C(F)(F)F)cc1O` [Compound 22], for which the IC50 was greater than 50 µM.
On to `O=C(NCCCCCNc1ncnc2ccsc12)c1sc(C(F)(F)F)cc1O` [Compound 23], for which the IC50 came to 11.5 µM.

Still in this assay, the particulars now being: thioether chemistry; product mixture and purified compound; read-out: IC50.
On to `O=C(Nc1cccc(C(F)(F)F)c1)Nc1ncc(CCSc2ncnc3ccsc23)s1` [Compound 6, reference compound], for which the IC50 stood at 0.005 µM.

Another assay concerns the target T3, ALK (Invitrogen PV3867) (Homo sapiens, UniProt Q9UM73).
T3 construct: purchased Invitrogen PV3867
As to the kind of experiment: ALK kinase assay (LanthaScreen time-resolved FRET, 10 μM ATP). The assay is classed as biochemical. Conditions: Table 7; hit fragment alone, no bait; read-out: Fragment IC50. The protocol: ALK kinase assays were conducted using the LanthaScreen® time-resolved FRET assay format (Invitrogen, Carlsbad Calif.). Assay conditions consisted of 15 pM (picomolar) ALK (Invitrogen PV3867), 10 μM ATP, and 100 nM substrate peptide FL-polyGT (Invitrogen PV3610) diluted in assay buffer (10 mM Tris pH 7.2, 10 mM MgCl, 1 mM DTT, 100 μM Na2OVO4. 0.01% Triton® X-100, 0.05% Casein). Control compounds and fragment-assembly reaction mixtures were diluted in DMSO to generate stock compounds at 20-fold final concentration. For IC50 assays, fragment-assembly reaction mixtures were titrated three-fold in DMSO and diluted 20-fold into the assay mixture. As a positive control for enzyme activity, the reaction mixture was added to DMSO, and, as a negative control for enzyme activity, the reaction mixture was added to staurosporine (Sigma) at a final concentration of 20 μM.
Fragment Library Pilot Screen. Fragment-assembly reaction mixtures were screened in 384-well plates at a concentration approximating 5-fold lower than that of the purine-mimetic bait fragment IC50 value, in single-point format in the ALK assay as described above. Reaction mixtures resulting in greater than or equal to 50% inhibition of enzymatic activity were then confirmed in single-point format, or tested in an IC50 assay. LC/MS analysis was conducted on fragment assembly screening plates to confirm the presence of desired test ligand in the reaction mixture.
Turning to `O=C(CS)Nc1ccc(Cl)cc1C(F)(F)F`, the IC50 amounted to 1.62 µM.
For `COc1cccc(C)c1NC(=O)NCCS`, the IC50 was determined as 6.64 µM.
For the compound `O=C(CS)N1CCCN(c2nc3ccc(Cl)cc3s2)CC1` [Compound 32], the IC50 worked out at 2 µM.

Still in this assay, the particulars now being: read-out: IC50.
With `COc1ccccc1Nc1ncc(Cl)c(NCCS)n1` [Compound 26], the IC50 came out at 0.5 µM.
For the compound `CC(C)S(=O)(=O)c1ccccc1Nc1nc(NCCS)ncc1Cl` [Compound 27], the IC50 turned out to be 0.25 µM.
For `CNc1ncc(Cl)c(Nc2cccc(CCl)c2)n1` [Compound 28], the IC50 stood at 3.75 µM.
In the case of `CNc1ncc(Cl)c(CCl)n1` [Compound 29], the IC50 turned out to be 7.8 µM.
